{"source": "patent US6489324B2", "about": "“Piperazine compounds as inhibitors of MMP or TNF” (Fujisawa Pharmaceutical Co., Ltd., priority 1996, dated 2002)", "data": [{"test_system": "not given", "test": "not given", "conditions": "not given", "units": {"melting point": "°C"}, "values": [{"smiles": "CS(=O)(=O)N1CCN(S(=O)(=O)c2ccc(-c3cccs3)cc2)[C@@H](C(=O)NOC2CCCCO2)C1", "note": "(stereo partly drawn) [Example 61, (2R)-4-Methanesulfonyl-1-[4-(thiophen-2-yl)benzenesulfonyl]-N-(2-tetrahydropyranyloxy)-2-piperazinecarboxamide]", "melting point": "194 to 195"}, {"smiles": "O=C(NO)[C@H]1CN(S(=O)(=O)CCc2ccccn2)CCN1S(=O)(=O)c1ccc(-c2ccccc2)s1", "note": "[Example 106, (2R)-N-Hydroxy-1-(5-phenylthiophene-2-sulfonyl)-4-[2-(2-pyridyl)-ethanesulfonyl]-2-piperazinecarboxamide]", "melting point": "170 to 174"}, {"smiles": "O=C(NO)[C@H]1CN(C(=O)Nc2ccccc2)CCN1S(=O)(=O)c1ccc(-c2ccc(F)cc2)s1", "note": "[Example 108, (2R)-1-[5-(4-Fluorophenyl)thiophene-2-sulfonyl]-N-hydroxy-4-[(N-phenyl)aminocarbonyl]-2-piperazinecarboxamide]", "melting point": "187 to 188"}, {"smiles": "O=C(NO)[C@H]1CN(C(=O)NC2CCCCC2)CCN1S(=O)(=O)c1ccc(-c2ccc(F)cc2)s1", "note": "[Example 109, (2R)-4-[(N-Cyclohexyl)aminocarbonyl]-1-[5-(4-fluorophenyl)-thiophene-2-sulfonyl]-N-hydroxy-2-piperazinecarboxamide]", "melting point": "111 to 123"}, {"smiles": "O=C(NO)[C@H]1CN(S(=O)(=O)c2ccc(-c3ccon3)s2)CCN1S(=O)(=O)c1ccc(-c2ccccc2)s1", "note": "[Example 139, (2R)-N-Hydroxy-4-[5-(isoxazol-3-yl)thiophene-2-sulfonyl]1-(5-phenylthiophene-2-sulfonyl)-2-piperazinecarboxamide]", "melting point": 204}, {"smiles": "CCN(C)S(=O)(=O)[C@@]1(C(=O)NO)CNCCN1S(=O)(=O)c1ccc(-c2ccc(Cl)cc2)s1", "note": "[Example 162, (2R)-1-[5-(4-Chlorophenyl)thiophene-2-sulfonyl]-N-hydroxy-2-(N-methylethylaminosulfonyl)-2-piperazinecarboxamide]", "melting point": "170 to 172"}, {"smiles": "CN(C)S(=O)(=O)N1CCN(S(=O)(=O)c2ccc(-c3ccc(CC#N)cc3)s2)[C@@H](C(=O)NO)C1", "note": "[Example 173, (2R)-1-[5-(4-Cyanomethylphenyl)thiophene-2-sulfonyl)-4-(N,N-dimethylaminosulfonyl)-N-hydroxy-2-piperazinecarboxamide]", "melting point": "170 to 172"}, {"smiles": "CN(C)S(=O)(=O)N1CCN(S(=O)(=O)c2ccc(Oc3ccccc3)cc2)[C@@H](C(=O)NO)C1", "note": "[Example 176, (2R)-4-(N,N-Dimethylaminosulfonyl)-N-hydroxy-1-(4-phenoxybenzenesulfonyl)-2-piperazinecarboxamide]", "melting point": "153 to 155"}, {"smiles": "CS(=O)(=O)NCCS(=O)(=O)N1CCN(S(=O)(=O)c2ccc(-c3ccc(C(F)(F)F)cc3)s2)[C@@H](C(=O)NO)C1", "note": "[Example 181, (2R)-N-Hydroxy-4-(2-(methanesulfonylamino)ethanesulfonyl]-1-[5-(4-trifluoromethylphenyl)thiophene-2-sulfonyl]-2-piperazinecarboxamide]", "melting point": "105 to 108"}, {"smiles": "CS(=O)(=O)NCCS(=O)(=O)N1CCN(S(=O)(=O)c2ccc(-c3ccc(Cl)cc3)s2)[C@@H](C(=O)NO)C1", "note": "[Example 182, (2R)-1-[5-(4-Chlorophenyl)thiophene-2-sulfonyl]-N-hydroxy-4-[2-(methanesulfonylamino)ethanesulfonyl]-2-piperazinecarboxamide]", "melting point": "118 to 122"}, {"smiles": "CS(=O)(=O)N1CCN(S(=O)(=O)/C=C/c2ccccc2)[C@@H](C(=O)NO)C1", "note": "[Example 189, (2R)-N-Hydroxy-1-(2-phenyl-2-trans-ethenylsulfonyl)-4-methanesulfonyl-2-piperazinecarboxamide]", "melting point": "94 to 99"}]}, {"target": "T1, Human collagenase (Homo sapiens, UniProt P03956)", "T1 construct": "endogenous in cells; host or cells: human skin fibroblasts stimulated with interleukin-1β", "T1 sequence (P03956 100-469)": "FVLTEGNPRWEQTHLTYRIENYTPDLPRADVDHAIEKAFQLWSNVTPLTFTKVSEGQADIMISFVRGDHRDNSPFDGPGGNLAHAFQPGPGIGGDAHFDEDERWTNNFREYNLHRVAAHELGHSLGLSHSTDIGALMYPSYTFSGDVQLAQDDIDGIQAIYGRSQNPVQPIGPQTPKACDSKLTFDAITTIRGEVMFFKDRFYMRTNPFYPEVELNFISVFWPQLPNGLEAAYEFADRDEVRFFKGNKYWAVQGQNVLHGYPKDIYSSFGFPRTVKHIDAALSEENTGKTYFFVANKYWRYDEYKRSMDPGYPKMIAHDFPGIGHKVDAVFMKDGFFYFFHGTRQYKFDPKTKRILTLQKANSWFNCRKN", "test": "Inhibitory Activity of Collagenase", "type": "biochemical", "conditions": "at 1 × 10^−6M; activated collagenase from human skin fibroblast culture medium, FTTC-labeled calf skin type I collagen, 37° C., 120 minutes", "protocol": "Human collagenase was prepared from the culture medium of human skin fibroblast stimulated with interleukin-1β (1 ng/ml). Latent collagenase was activated by incubation with trypsin (200 μg/ml) at 37° C. for 60 minutes and the reaction was stopped by adding soybean trypsin inhibitor (800 μg/ml). Collagenase activity was determined using FTTC-labeled calf skin type I collagen. FTTC-collagen (2.5 mg/ml) was incubated at 37° C. for 120 minutes with the activated collagenase and test compound in 50 mM Tris buffer (containing 5 mM CaCl2, 200 mM NaCl and 0.02% NaN3, pH 7.5). After stopping the enzyme reaction by adding the equal volume of 70% ethanol-200 mM Tris buffer (pH 9.5), the reaction mixture was centrifuged, and collagenase activity was estimated by measuring the fluorescence intensity of supernatant at 495 nm (excitation) and 520 nm (emission).", "units": {"Inhibitory activity": "% at 1 × 10^−6M"}, "values": [{"smiles": "CS(=O)(=O)N1CCN(S(=O)(=O)c2ccc([N+](=O)[O-])cc2)[C@@H](C(=O)NO)C1", "note": "[Example 5, (2R)-1-(4-nitrobenzenesulfonyl)-4-methanesulfonylpiperazine-2-(N-hydroxy)carboxamide]", "Inhibitory activity": 95.3}]}]}
